In brackets after ≈: the same amount, converted by molar mass. Activity calls are given as the source filed them. The rule behind the calls is not given here.
Assays:
Staphylococcus aureus [1] = experiment: Antimicrobial activity against Staphylococcus aureus ATCC6538 assessed as reduction in bacterial growth incubated for 24 hrs by two-fold broth dilution method; format: functional
Staphylococcus aureus [2] = experiment: Antimicrobial activity against Staphylococcus aureus N315 assessed as reduction in bacterial growth incubated for 24 hrs by two-fold broth dilution method; format: functional
Streptomyces albus = experiment: Antimicrobial activity against Streptomyces albus SHBC D11158 assessed as reduction in bacterial growth incubated for 24 hrs by two-fold broth dilution method; format: functional
Staphylococcus hominis [3] = experiment: Antimicrobial activity against methicillin-resistant Staphylococcus hominis assessed as reduction in bacterial growth incubated for 24 hrs by two-fold broth dilution method; format: functional
Staphylococcus aureus [4] = experiment: Bactericidal activity against Staphylococcus aureus ATCC6538 assessed as reduction in survival rate at 5 to 10 times MIC measured within 1 hr by colony counting method; format: functional, organism-based
[5] = Hemolytic activity in rabbit Red blood cell assessed as hemolysis incubated for 1 hr by two-fold microdilution method; format: toxicity, cell-based, Oryctolagus cuniculus, Erythrocyte; conditions: red blood cells (erythrocytes)
[6] = Selectivity index, ratio of HC50 for rabbit Red blood cell to MIC for Staphylococcus aureus ATCC6538; format: toxicity; conditions: red blood cells (erythrocytes), read-out: Selectivity Index
[7] = Cytotoxicity against African green monkey Vero E6 cells assessed as reduction in cell viability measured after 24 hrs by CCK-8 method; format: toxicity, cell-based, Chlorocebus sabaeus, Vero C1008
[8] = Selectivity index, ratio of IC50 for African green monkey Vero E6 cells to MIC for Staphylococcus aureus ATCC6538; format: toxicity; conditions: read-out: Selectivity Index
HeLa = experiment: Cytotoxicity against human HeLa cells assessed as reduction in cell viability measured after 24 hrs by CCK-8 method; format: functional, cell-based
[9] = Cytotoxicity against human HaCaT cells assessed as reduction in cell viability measured after 24 hrs by CCK-8 method; format: toxicity, cell-based
[10] = Cytotoxicity against HEK293 cells assessed as reduction in cell viability measured after 24 hrs by CCK-8 method; format: toxicity, cell-based; conditions: human
A549 = experiment: Cytotoxicity against human A549 cells assessed as reduction in cell viability measured after 24 hrs by CCK-8 method; format: functional, cell-based; conditions: A549, 24 h
Staphylococcus aureus [11] = experiment: Antimicrobial activity against methicillin resistant Staphylococcus aureus clinical isolate MRS1 assessed as reduction in bacterial growth incubated for 24 hrs by two-fold broth dilution method; format: functional
Staphylococcus aureus [12] = experiment: Antimicrobial activity against methicillin resistant Staphylococcus aureus clinical isolate MRS23 assessed as reduction in bacterial growth incubated for 24 hrs by two-fold broth dilution method; format: functional
Staphylococcus aureus [13] = experiment: Antimicrobial activity against methicillin resistant Staphylococcus aureus clinical isolate MRS70 assessed as reduction in bacterial growth incubated for 24 hrs by two-fold broth dilution method; format: functional
Staphylococcus aureus [14] = experiment: Antimicrobial activity against methicillin resistant Staphylococcus aureus clinical isolate MRS207 assessed as reduction in bacterial growth incubated for 24 hrs by two-fold broth dilution method; format: functional
Staphylococcus aureus [15] = experiment: Antimicrobial activity against methicillin resistant Staphylococcus aureus clinical isolate MRS108 assessed as reduction in bacterial growth incubated for 24 hrs by two-fold broth dilution method; format: functional
Staphylococcus aureus [16] = experiment: Antimicrobial activity against methicillin resistant Staphylococcus aureus clinical isolate MRS152 assessed as reduction in bacterial growth incubated for 24 hrs by two-fold broth dilution method; format: functional
Staphylococcus aureus [17] = experiment: Antimicrobial activity against methicillin resistant Staphylococcus aureus clinical isolate MRS200 assessed as reduction in bacterial growth incubated for 24 hrs by two-fold broth dilution method; format: functional
Staphylococcus aureus [18] = experiment: Antimicrobial activity against methicillin resistant Staphylococcus aureus clinical isolate MRS273 assessed as reduction in bacterial growth incubated for 24 hrs by two-fold broth dilution method; format: functional
Staphylococcus aureus [19] = experiment: Antimicrobial activity against methicillin resistant Staphylococcus aureus clinical isolate MRS153 assessed as reduction in bacterial growth incubated for 24 hrs by two-fold broth dilution method; format: functional
Staphylococcus aureus [20] = experiment: Antimicrobial activity against methicillin resistant Staphylococcus aureus clinical isolate MRS84 assessed as reduction in bacterial growth incubated for 24 hrs by two-fold broth dilution method; format: functional
Staphylococcus aureus [21] = experiment: Antimicrobial activity against methicillin resistant Staphylococcus aureus clinical isolate MRS121 assessed as reduction in bacterial growth incubated for 24 hrs by two-fold broth dilution method; format: functional
Staphylococcus aureus [22] = experiment: Antimicrobial activity against methicillin resistant Staphylococcus aureus clinical isolate MRS97 assessed as reduction in bacterial growth incubated for 24 hrs by two-fold broth dilution method; format: functional
Staphylococcus aureus [23] = experiment: Induction of drug resistance in Staphylococcus aureus ATCC6538 assessed as change in MIC measured after 10 passages; format: functional
Staphylococcus aureus [24] = experiment: Induction of drug resistance in Staphylococcus aureus ATCC6538 assessed as fold change in MIC measured after 10 passages; format: functional
Staphylococcus aureus [25] = experiment: Bactericidal activity against Staphylococcus aureus ATCC6538 at 5 ug/ml measured upto 150 mins; format: functional, organism-based; conditions: dose 5.0 µg/ml
Staphylococcus aureus [26] = experiment: Bactericidal activity against norfloxacin-resistant Staphylococcus aureus ATCC6538 at 5 ug/ml measured upto 150 mins; format: functional, organism-based; conditions: dose 5.0 µg/ml
Staphylococcus aureus [27] = experiment: Bactericidal activity against methicillin-resistant Staphylococcus aureus clinical isolate MRS1 at 5 ug/ml measured upto 150 mins; format: functional, organism-based; conditions: dose 5.0 µg/ml
Staphylococcus aureus [28] = experiment: Bactericidal activity against methicillin-resistant Staphylococcus aureus clinical isolate MRS153 at 5 ug/ml measured upto 150 mins; format: functional, organism-based; conditions: dose 5.0 µg/ml
Staphylococcus aureus [29] = experiment: Bactericidal activity against methicillin-resistant Staphylococcus aureus clinical isolate MRS97 at 5 ug/ml measured upto 150 mins; format: functional, organism-based; conditions: dose 5.0 µg/ml
Staphylococcus aureus [30] = experiment: Bactericidal activity against Staphylococcus aureus ATCC6538 assessed as reduction in survival rate at 5 to 10 times MIC measured after 30 to 120 mins by colony counting method relative to control; format: functional; conditions: time 30-120 min
Staphylococcus hominis [31] = experiment: Bactericidal activity against multidrug-resistant Staphylococcus hominis at 5 ug/ml measured upto 150 mins; format: functional, organism-based; conditions: dose 5.0 µg/ml
Staphylococcus aureus [32] = experiment: Antimicrobial activity against vancomycin-resistant Staphylococcus aureus assessed as reduction in bacterial growth incubated for 24 hrs by two-fold broth dilution method; format: functional
Cell membrane [33] = experiment: Disruption of cell membrane integrity in Staphylococcus aureus ATCC6538 assessed as increase in fluorescence intensity measured upto 36 mins ethidium bromide uptake assay; format: cell membranes
Cell membrane [34] = experiment: Disruption of cell membrane integrity in methicillin resistant Staphylococcus aureus clinical isolate MRS153 assessed as increase in fluorescence intensity measured upto 36 mins ethidium bromide uptake assay; format: cell membranes

O=C(CCC(F)(F)F)N(Cc1cc2ccccc2s1)c1cc(-c2cccc(C(F)(F)F)c2)ccc1O
MIC (Staphylococcus aureus [1]): 1 mg/L (≈ 1.91 µM)
MIC (Staphylococcus aureus [2]): 2 mg/L (≈ 3.82 µM)
MIC (Streptomyces albus): 2 mg/L (≈ 3.82 µM)
MIC (Staphylococcus hominis [3]): 2 mg/L (≈ 3.82 µM)
Activity (Staphylococcus aureus [4]): Active
HC50 at 1 h [5]: 3280 µg/mL
selectivity ratio [6]: > 1000
IC50 at 24 h [7]: 20.3 mg/L (≈ 38.8 µM)
selectivity ratio [8]: 20
IC50 (HeLa): 13.4 mg/L (≈ 25.5 µM)
IC50 at 24 h [9]: 13 mg/L (≈ 24.8 µM)
IC50 at 24 h [10]: 12.2 mg/L (≈ 23.4 µM)
IC50 (A549): 12.5 mg/L (≈ 23.9 µM)
MIC (Staphylococcus aureus [11]): 3 mg/L (≈ 5.73 µM)
MIC (Staphylococcus aureus [12]): 6 mg/L (≈ 11.5 µM)
MIC (Staphylococcus aureus [13]): 6 mg/L (≈ 11.5 µM)
MIC (Staphylococcus aureus [14]): 6 mg/L (≈ 11.5 µM)
MIC (Staphylococcus aureus [15]): 6 mg/L (≈ 11.5 µM)
MIC (Staphylococcus aureus [16]): > 16 mg/L
MIC (Staphylococcus aureus [17]): 6 mg/L (≈ 11.5 µM)
MIC (Staphylococcus aureus [18]): 3 mg/L (≈ 5.73 µM)
MIC (Staphylococcus aureus [19]): 6 mg/L (≈ 11.5 µM)
MIC (Staphylococcus aureus [20]): 3 mg/L (≈ 5.73 µM)
MIC (Staphylococcus aureus [21]): 3 mg/L (≈ 5.73 µM)
MIC (Staphylococcus aureus [22]): 3 mg/L (≈ 5.73 µM)
Activity (Staphylococcus aureus [23]): inactive

CCn1cc(C(=O)O)c(=O)c2cc(F)c(N3CCNCC3)cc21
fold change (FC) (Staphylococcus aureus [24]): 256
Activity (Staphylococcus aureus [25]): Active
Activity (Staphylococcus aureus [26]): inactive

COc1cccc(OC)c1C(=O)N[C@@H]1C(=O)N2[C@@H]1SC(C)(C)[C@@H]2C(=O)O [METHICILLIN]
MIC (Staphylococcus aureus [1]): 1 mg/L (≈ 2.63 µM)
MIC (Streptomyces albus): 4 mg/L (≈ 10.5 µM)
MIC (Staphylococcus hominis [3]): 2 mg/L (≈ 5.26 µM)
MIC (Staphylococcus aureus [11]): 16 mg/L (≈ 42.1 µM)
MIC (Staphylococcus aureus [12]): 8 mg/L (≈ 21 µM)
MIC (Staphylococcus aureus [13]): 16 mg/L (≈ 42.1 µM)
MIC (Staphylococcus aureus [14]): 16 mg/L (≈ 42.1 µM)
MIC (Staphylococcus aureus [15]): 16 mg/L (≈ 42.1 µM)
MIC (Staphylococcus aureus [16]): 8 mg/L (≈ 21 µM)
MIC (Staphylococcus aureus [17]): > 16 mg/L
MIC (Staphylococcus aureus [18]): 16 mg/L (≈ 42.1 µM)
MIC (Staphylococcus aureus [19]): > 16 mg/L
MIC (Staphylococcus aureus [20]): 16 mg/L (≈ 42.1 µM)
MIC (Staphylococcus aureus [21]): 8 mg/L (≈ 21 µM)
MIC (Staphylococcus aureus [22]): 8 mg/L (≈ 21 µM)
Activity (Staphylococcus aureus [27]): inactive
Activity (Staphylococcus aureus [28]): inactive
Activity (Staphylococcus aureus [29]): inactive

O=C(CCC(F)(F)F)N(Cc1cc2ccccc2s1)c1cc(-c2ccco2)ccc1O
MIC (Staphylococcus aureus [1]): 2 mg/L (≈ 4.49 µM)
MIC (Staphylococcus aureus [2]): 1 mg/L (≈ 2.24 µM)
MIC (Streptomyces albus): 16 mg/L (≈ 35.9 µM)
MIC (Staphylococcus hominis [3]): 16 mg/L (≈ 35.9 µM)
Survival (Staphylococcus aureus [30]): <1%
HC50 at 1 h [5]: 1640 µg/mL
selectivity ratio [6]: > 1000
IC50 at 24 h [7]: > 25 mg/L
selectivity ratio [8]: > 25
IC50 (HeLa): > 25 mg/L
IC50 at 24 h [9]: > 25 mg/L
IC50 at 24 h [10]: 15.4 mg/L (≈ 34.6 µM)
IC50 (A549): > 25 mg/L
MIC (Staphylococcus aureus [11]): 6 mg/L (≈ 13.5 µM)
MIC (Staphylococcus aureus [12]): 2 mg/L (≈ 4.49 µM)
MIC (Staphylococcus aureus [13]): 6 mg/L (≈ 13.5 µM)
MIC (Staphylococcus aureus [14]): 8 mg/L (≈ 18 µM)
MIC (Staphylococcus aureus [15]): 6 mg/L (≈ 13.5 µM)
MIC (Staphylococcus aureus [16]): 6 mg/L (≈ 13.5 µM)
MIC (Staphylococcus aureus [17]): 6 mg/L (≈ 13.5 µM)
MIC (Staphylococcus aureus [18]): 3 mg/L (≈ 6.73 µM)
MIC (Staphylococcus aureus [19]): 2 mg/L (≈ 4.49 µM)
MIC (Staphylococcus aureus [20]): 3 mg/L (≈ 6.73 µM)
MIC (Staphylococcus aureus [21]): 6 mg/L (≈ 13.5 µM)
MIC (Staphylococcus aureus [22]): 3 mg/L (≈ 6.73 µM)
Activity (Staphylococcus aureus [23]): inactive

CN[C@H](CC(C)C)C(=O)N[C@H]1C(=O)N[C@@H](CC(N)=O)C(=O)N[C@H]2C(=O)N[C@H]3C(=O)N[C@H](C(=O)N[C@H](C(=O)O)c4cc(O)cc(O)c4-c4cc3ccc4O)[C@H](O)c3ccc(c(Cl)c3)Oc3cc2cc(c3O[C@@H]2O[C@H](CO)[C@@H](O)[C@H](O)[C@H]2O[C@H]2C[C@](C)(N)[C@H](O)[C@H](C)O2)Oc2ccc(cc2Cl)[C@H]1O [VANCOMYCIN]
MIC (Streptomyces albus): 2 mg/L (≈ 1.38 µM)
MIC (Staphylococcus hominis [3]): 1 mg/L (≈ 0.69 µM)
Activity (Staphylococcus aureus [25]): inactive
Activity (Staphylococcus hominis [31]): inactive
MIC (Staphylococcus aureus [32]): ≥ 8 mg/L
Activity (Cell membrane [33]): inactive
Activity (Cell membrane [34]): inactive
